# Assay results reported in patent US20040044264A1, “Use of ionic liquids to separate olefins, diolefins and aromatics” (NOVA Chemicals (International) S.A., priority 2002, published 2004).
# Where two headings read alike, the source gives them in different places. Marks after values point to notes of the source that are not given here.
# Test: Hydrocarbon solubility in ionic liquid (volume change of hydrocarbon phase in graduated flask)
# Protocol: The testing apparatus consisted of a flat-bottomed florence flask with a graduated neck. The flask was charged with 75 mL of bmim^+BF4^−, the level being recorded. A known quantity of C5 hydrocarbon was then added to the flask and the flask was sealed. The overall liquid level and the location of the liquid-liquid interfacial meniscus were recorded. The mixture was then agitated to contact the two liquids and the two phases were allowed to separate. The locations of all meniscuses were then recorded. Agitation and phase separation was then repeated until the liquid levels remained unchanged. The volume change of the hydrocarbon phase corresponds to the quantity of hydrocarbon dissolved in the ionic liquid. The testing was conducted at ambient temperature.
# The procedure described in Example 1 was performed instead with ethylcyclohexane, ethylbenzene, and styrene. The ionic liquid used was 1-butyl-3-methylimidazolium tetrafluoroborate.
# [1] = in bmim+ BF4- ionic liquid containing 1.69 M AgBF4
# [2] = in bmim+ BF4- ionic liquid containing 1.69 M AgBF4, ambient temperature
structure (smiles),measurement,setting,value
CCc1ccccc1 [Ethylbenzene],Solubility (mol C8/L ionic liquid),[1],7.55 mol C8/L ionic liquid
same,Solubility (mol C8/mol Ag+),[1],4.47 mol C8/mol Ag+
CCC1CCCCC1 [Ethylcyclohexane],Solubility (mol C8/L ionic liquid),,0.10 mol C8/L ionic liquid
same,Solubility (mol C8/mol Ag+),,0.06 mol C8/mol Ag+
CCC(C)C [Isopentane],Solubility (mol C5/L ionic liquid),,0.044 mol C5/L ionic liquid
same,Solubility (mol C5/mol Ag+),,0.026 mol C5/mol Ag+
C=CC(=C)C [Isoprene],Solubility (mol C5/L ionic liquid),[2],1.132 mol C5/L ionic liquid
same,Solubility (mol C5/mol Ag+),[2],0.670 mol C5/mol Ag+
C=Cc1ccccc1 [Styrene],Solubility (mol C8/L ionic liquid),[1],> 7.01* mol C8/L ionic liquid
same,Solubility (mol C8/mol Ag+),[1],4.15* mol C8/mol Ag+
